# From patent publication US20260258402A1, “DEVICE FOR DETERMINING MOLECULAR INTERACTIONS” (Depixus SAS, priority 2023, published 2026)
# Legend:
# [1] = target: E3 ligase CEREBLON (in complex with its binding partner DDB1), the neo-target GSPT1 (Homo sapiens, UniProt P15170+Q96SW2); test: Tertiary complex formation between CRBN/DDB1 and GSPT1 with a molecular glue, on the nucleic acid scaffold (force cycles); settings: for formation / stabilization of the tertiary complex CEREBLON-DDB1 / GSPT1 in the presence of the molecular glue: FIG. 27 and 28, force reduced to 0.01 pN to allow interaction
# Procedure: (§3) Briefly, a reference elongation length of a nucleic acid scaffold present in a flow cell was determined at a constant force. Next, a single stranded polynucleotide containing the complementary sequence of the first molecule binding sequence as well as an amine group at the 5′ end (SEQ ID NO: 23) was coupled to candidate protein (CRBN and its binding partner DDB1 that form the E3 ligase complex) by a covalent conjugation (esterification via EDC). In parallel, a second single stranded polynucleotide containing the complementary sequence of the second molecule binding sequence as well as an amine group at the 3′ end (SEQ ID NO: 34) was coupled to candidate protein (GSTP1 neo-substrat of CRBN) by a covalent conjugation (esterification via EDC). A first candidate molecule conjugated to a first polynucleotide and a second candidate molecule covalently conjugated to a second polynucleotide are sequentially injected into the flow cell to anchor them on to the nucleic acid scaffold and form a screening nucleic acid scaffold (FIGS. 27 and 28). Then, a force of 2 pN was applied to determine the maximal elongation length. The force was then reduced to 0.01 pN to allow the two proteins to interact. If the two candidate molecules have binding interaction between them, upon increasing the force back to 2 pN, the elongation observed would be less than the full extension of the screening nucleic acid scaffold. If the two candidate molecules have no binding interaction between them or weaker binding interaction between them than the applied force, the nucleic acid scaffold would fully stretch. The two proteins are not believed to have a native interaction. […] Various concentration of compound can be performed to measure the Kon and Koff of interaction in presence of the compound.
# [2] = test system: double stranded blunt end substrates; test: NHEJ complex formation on two double stranded blunt end substrates on the scaffold (force cycles); format: binding; settings: for role in the complex formed on the blunt end adapters: FIG. 25B, Ku70/80 and APFL injected together, 2 pN
# Procedure: The system described in Example 1 and Example 2 was used for determining binding kinetics between two substrates and proteins that form a Non-Homologous End Joining (NHEJ) complex. The NHEJ complex recognizes double stranded blunt ends and repair these lesions in the cell. Accordingly, two substrates, each comprising a single stranded carrier polynucleotide and a candidate molecule comprising a double stranded blunt end were prepared, wherein the single stranded carrier polynucleotide was complementary to a molecule binding sequence of a nucleic acid scaffold. The double stranded blunt end was prepared by annealing twice two oligos together (SEQ ID NOS: 14 and 15, as well as SEQ ID NOS: 17 and 18 at 10 μM each in PBS).
# (§1) Because each of the proposed sequences contained the glue sequence for first and second molecule binding sequence respectively, the substrates could be directed to a specific location on the nucleic acid scaffold. Accordingly, the two substrates for the NHEJ complex were anchored to two molecule binding sequences of the nucleic acid scaffold to form a screening nucleic acid scaffold. The excess substrates were washed away. A reference elongation length of a screening nucleic acid scaffold was determined by applying 2 pN force in the absence of the substrates.
# (§2) Next, two candidate proteins, KU70/80 complex as well as the APFL protein together into PBS 1X, were injected within the flow cell. The flow was stop and force cycles experiments were initiated. Blockage traces were recorded at 0.1 pN and 2 pN. At 0.1 pN force, the screening nucleic acid scaffold was unstructured, which allowed the two blunt ends to be brought in close proximity. […] Because the method was a non-destructive process, the force cycles were repeated multiple times to further probe the interaction.
# The system described in Example 1 and Example 2 was used for determining binding kinetics between two substrates and proteins that form a Non-Homologous End Joining (NHEJ) complex. The NHEJ complex recognizes double stranded blunt ends and repairs these lesions in the cell. Accordingly, two substrates, each comprising a single stranded carrier polynucleotide and a candidate molecule comprising a double stranded blunt end were prepared, wherein the single stranded carrier polynucleotide was complementary to a molecule binding sequence of a nucleic acid scaffold. The two double stranded blunt end adapters were prepared by annealing in two separate tubes two oligos together (SEQ ID NOS: 14 and 15, as well as SEQ ID NOS: 17 and 18 at 10 μM each in a buffer containing: 50 mM NaCl, 10 mM Tris-HCl, 10 mM MgCl2, 1 mM DTT at pH 7.9 @ 25° C.).
# as §1, with “Because” for “Because each of”, “system was based on” for “sequences contained”, “protein complex recognizing blunt ends DNA,” for “glue sequence for first and second molecule binding sequence respectively,”, “applying force cycles at three step forces: 0.01,” for “applying”, “2 and 20” for “2”
# as §2, with “a buffer containing: 20 mM Hepes-KOH PH7.8, 100 mM KCL, 5 mM MgCl2, 1 mM DTT, 0.5 mg/mL BSA, and they” for “PBS 1X,”, “Force cycles” for “Blockage traces”, “were the force varies between three plateau: 0.01 pN, 2” for “at 0.1”, “20 pN (FIG. 25A).” for “2 pN.”, “0.01” for “0.1”
# [3] = target: E3 ligase CEREBLON (in complex with its binding partner DDB1), the neo-substrate IKAROS1 (Homo sapiens, UniProt Q13422+Q96SW2)
# Procedure: as §3
# [4] = Example 3, both proteins injected together in PBS 1X, force cycles 0.1 pN and 2 pN
# [5] = Example 12, both proteins injected together, force cycles 0.01, 2 and 20 pN
# E3 ligase CEREBLON (in complex with its binding partner DDB1), the neo-target GSPT1, sequence (Q96SW2 whole entry): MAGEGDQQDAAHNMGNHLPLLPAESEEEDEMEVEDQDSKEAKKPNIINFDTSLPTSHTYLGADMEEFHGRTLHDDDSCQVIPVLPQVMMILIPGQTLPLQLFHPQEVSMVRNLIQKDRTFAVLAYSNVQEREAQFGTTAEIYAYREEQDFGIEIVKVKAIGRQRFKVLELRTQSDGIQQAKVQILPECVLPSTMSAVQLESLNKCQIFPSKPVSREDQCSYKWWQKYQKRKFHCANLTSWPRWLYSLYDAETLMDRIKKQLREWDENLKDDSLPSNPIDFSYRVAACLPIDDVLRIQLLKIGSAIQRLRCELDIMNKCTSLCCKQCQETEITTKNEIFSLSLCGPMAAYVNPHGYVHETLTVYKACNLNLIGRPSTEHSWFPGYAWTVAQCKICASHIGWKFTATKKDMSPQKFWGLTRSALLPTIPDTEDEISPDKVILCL
# E3 ligase CEREBLON (in complex with its binding partner DDB1), the neo-target GSPT1, sequence (Q16531 whole entry partner): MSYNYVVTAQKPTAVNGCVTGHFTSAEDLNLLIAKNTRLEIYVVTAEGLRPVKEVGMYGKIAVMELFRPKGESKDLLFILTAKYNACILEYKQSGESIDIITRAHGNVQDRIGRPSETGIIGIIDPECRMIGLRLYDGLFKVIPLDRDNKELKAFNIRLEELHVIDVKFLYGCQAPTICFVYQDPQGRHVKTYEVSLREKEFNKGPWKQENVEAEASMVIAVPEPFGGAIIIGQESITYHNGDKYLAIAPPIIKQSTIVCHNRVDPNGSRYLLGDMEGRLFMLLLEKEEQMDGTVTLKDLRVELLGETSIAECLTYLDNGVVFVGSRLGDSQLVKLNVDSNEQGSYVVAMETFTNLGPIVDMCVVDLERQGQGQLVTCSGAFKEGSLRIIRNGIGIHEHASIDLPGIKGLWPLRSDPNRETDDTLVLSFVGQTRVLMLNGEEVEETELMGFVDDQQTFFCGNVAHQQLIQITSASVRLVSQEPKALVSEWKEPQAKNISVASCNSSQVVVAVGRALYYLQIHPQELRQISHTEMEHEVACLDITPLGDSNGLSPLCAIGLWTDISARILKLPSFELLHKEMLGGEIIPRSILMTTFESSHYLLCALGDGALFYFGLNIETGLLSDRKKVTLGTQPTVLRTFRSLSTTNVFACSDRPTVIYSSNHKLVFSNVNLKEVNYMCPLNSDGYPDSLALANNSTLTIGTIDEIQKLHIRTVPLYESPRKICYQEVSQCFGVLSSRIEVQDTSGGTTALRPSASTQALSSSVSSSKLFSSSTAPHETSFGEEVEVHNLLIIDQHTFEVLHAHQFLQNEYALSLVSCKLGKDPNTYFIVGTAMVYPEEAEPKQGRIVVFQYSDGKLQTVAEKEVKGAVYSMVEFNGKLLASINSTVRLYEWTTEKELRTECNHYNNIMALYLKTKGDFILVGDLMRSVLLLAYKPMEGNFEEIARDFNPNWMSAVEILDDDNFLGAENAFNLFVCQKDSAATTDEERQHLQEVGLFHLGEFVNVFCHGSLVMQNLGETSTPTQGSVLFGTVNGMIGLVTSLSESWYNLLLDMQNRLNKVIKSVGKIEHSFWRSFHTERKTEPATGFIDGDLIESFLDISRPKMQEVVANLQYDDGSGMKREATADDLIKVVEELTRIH
# E3 ligase CEREBLON (in complex with its binding partner DDB1), the neo-target GSPT1, sequence (P15170 whole entry): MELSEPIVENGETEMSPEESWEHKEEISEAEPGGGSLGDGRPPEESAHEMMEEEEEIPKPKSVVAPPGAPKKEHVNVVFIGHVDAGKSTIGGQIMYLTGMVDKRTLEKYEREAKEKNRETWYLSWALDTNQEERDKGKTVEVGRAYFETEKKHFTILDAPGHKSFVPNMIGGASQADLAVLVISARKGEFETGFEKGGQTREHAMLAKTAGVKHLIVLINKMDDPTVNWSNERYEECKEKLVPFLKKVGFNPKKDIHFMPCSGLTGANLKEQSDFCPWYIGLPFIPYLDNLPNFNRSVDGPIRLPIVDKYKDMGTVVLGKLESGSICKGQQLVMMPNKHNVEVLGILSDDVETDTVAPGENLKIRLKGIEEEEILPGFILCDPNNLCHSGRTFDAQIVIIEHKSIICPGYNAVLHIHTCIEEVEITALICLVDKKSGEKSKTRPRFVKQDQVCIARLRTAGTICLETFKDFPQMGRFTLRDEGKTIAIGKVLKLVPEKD
# E3 ligase CEREBLON (in complex with its binding partner DDB1), the neo-substrate IKAROS1, sequence (Q13422 whole entry): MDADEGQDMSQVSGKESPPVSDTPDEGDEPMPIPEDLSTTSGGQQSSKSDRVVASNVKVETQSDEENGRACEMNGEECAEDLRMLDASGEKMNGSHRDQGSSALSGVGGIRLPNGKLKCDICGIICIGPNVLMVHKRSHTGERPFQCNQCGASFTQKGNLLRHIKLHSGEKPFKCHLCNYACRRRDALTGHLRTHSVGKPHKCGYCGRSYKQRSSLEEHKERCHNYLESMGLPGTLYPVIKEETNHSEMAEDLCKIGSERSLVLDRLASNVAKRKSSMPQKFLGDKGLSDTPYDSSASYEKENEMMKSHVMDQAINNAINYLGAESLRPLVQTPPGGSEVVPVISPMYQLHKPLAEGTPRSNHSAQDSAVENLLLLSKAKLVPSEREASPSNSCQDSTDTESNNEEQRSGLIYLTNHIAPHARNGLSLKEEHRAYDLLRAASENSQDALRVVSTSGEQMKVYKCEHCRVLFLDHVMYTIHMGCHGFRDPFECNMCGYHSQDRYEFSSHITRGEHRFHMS
# E3 ligase CEREBLON (in complex with its binding partner DDB1), the neo-substrate IKAROS1, sequence (Q16531 whole entry, further chain): as the sequence (Q16531 whole entry partner) above
# E3 ligase CEREBLON (in complex with its binding partner DDB1), the neo-substrate IKAROS1, sequence (Q96SW2 whole entry): as the sequence (Q96SW2 whole entry) above
Molecule,formation / stabilization of the tertiary complex CEREBLON-DDB1 / GSPT1 in the presence of the molecular glue [1],"blockage of scaffold stretching (complex on the two blunt end substrates) [2, 4]","blockage of scaffold stretching (complex on the two blunt end substrates) [2, 5]",role in the complex formed on the blunt end adapters [2],further results
Cc1ccc(NC(=O)NCc2ccc3c(c2)CN(C2CCC(=O)NC2=O)C3=O)cc1Cl (centres unmarked) [CC885],greatly stabilizes the complex,,,,"force needed to break the tertiary complex ([1]; FIG. 27, CEREBLON-DDB1 / GSPT1): 20 pN; time to reform the complex when the force is reduced to 0.01 pN ([1]; FIG. 27, after breaking at 20 pN): few second"
"KU70/80: KU70/80 complex, which binds at the double stranded breaks (NHEJ)",,one or more transient blockages were observed,one or more transient blockages were observed,form at the blunt end of both adapters,
O=C1CCC(N2C(=O)c3ccccc3C2=O)C(=O)N1 (centres unmarked) [thalidomide],possible to observe formation of the tertiary complex,,,,"strength of the tertiary complex interaction (in words) ([1]; FIG. 28, compared with CC885): the interaction is weaker and can be broken even at low force"
Nc1cccc2c1C(=O)N(C1CCC(=O)NC1=O)C2=O (centres unmarked) [pomalidomide],,,,,force the tertiary complex can sustain ([3]; FIG. 29): up to 2 pN; formation of the tertiary complex CEREBLON-DDB1 / IKAROS1 upon addition of the molecular glue ([3]; FIG. 29): strong tertiary complex is formed; interaction between CRBN E3 ligase and IKZF1 in presence of the compound ([3]; compound at 1 nM): the interaction was observed
"APFL: APFL protein that bridges Ku70/80 complexes in the NHEJ complex (protein, UniProt Q8IW19 1-511, looked up) Aprataxin and PNK-like factor: MSGGFELQPRDGGPRVALAPGETVIGRGPLLGITDKRVSRRHAILEVAGGQLRIKPIHTNPCFYQSSEKSQLLPLKPNLWCYLNPGDSFSLLVDKYIFRILSIPSEVEMQCTLRNSQVLDEDNILNETPKSPVINLPHETTGASQLEGSTEIAKTQMTPTNSVSFLGENRDCNKQQPILAERKRILPTWMLAEHLSDQNLSVPAISGGNVIQGSGKEEICKDKSQLNTTQQGRRQLISSGSSENTSAEQDTGEECKNTDQEESTISSKEMPQSFSAITLSNTEMNNIKTNAQRNKLPIEELGKVSKHKIATKRTPHKEDEAMSCSENCSSAQGDSLQDESQGSHSESSSNPSNPETLHAKATDSVLQGSEGNKVKRTSCMYGANCYRKNPVHFQHFSHPGDSDYGGVQIVGQDETDDRPECPYGPSCYRKNPQHKIEYRHNTLPVRNVLDEDNDNVGQPNEYDLNDSFLDDEEEDYEPTDEDSDWEPGKEDEEKEDVEELLKEAKRFMKRK",,one or more transient blockages were observed,one or more transient blockages were observed,bridges these complexes,
